The subject of data set [1] is HEK293A wild-type cells. Briefly: CellTiter-Glo cell viability assay, titration of antibiotic concentrations (killing curve). Format: cell-based, human. Conditions: HEK293A wild-type cells. On the procedure:
(§1) HEK293A wild-type cells were treated for 72 h with various concentrations of the antibiotics (a) hygromycin B and (b) puromycin, respectively. Cell viability was determined with the CellTiter-Glo assay.
(§2) The CellTiter-Glo assay was used to determine the number of viable cells in a sample. The method is based on the quantification of the ATP amount as an indicator of metabolically active cells. The CellTiter-Glo Luminescent Cell Viability Assay Kit from Promega was used for the experiments. The CellTiter-Glo reagent was freshly prepared before each experiment. For this purpose, the substrate, which contains inter alia luciferin and a luciferase, was dissolved in the accompanying buffer. After direct addition to the medium of the cells, lysis of the cells occurs first. Viable cells produce ATP in their mitochondria, which is thereby released. In the presence of ATP, the luciferin is converted by the UltraGlo r-luciferase. This produces a stable luminescence signal which is proportional to the amount of ATP present and thus to the number of viable cells.
(§3) The assay was used to optimize transfection and to titrate the optimal antibiotic concentrations of hygromycin B and puromycin for post-transfection selection. In all assays, cells were seeded in a black flat bottom 96-well plate with a transparent bottom. When titrating the antibiotic concentrations, 7,500 cells were seeded per well. The next day, the cells were treated with various concentrations of the antibiotic. After […], the viability of the cells was determined by the assay in which 100 μL of the CellTiter-Glo reagent was added to each well. Subsequently, the plate was shaken on a plate shaker for 2 min. at 200 rpm. After incubation in the dark for 10 minutes, the luminescence signal was measured on the luminometer.
(In general: In ATP-based viability assays light output follows the ATP content of the culture.)

Assay in data set [2]: as above
The conditions noted are these: human. Format: cell-based, human. On the procedure:
as §1, §2, §3

Counter-ions that a name gives are not always drawn.

Regarding `CN[C@H]1C[C@@H](N)[C@H](O)[C@@H](O[C@@H]2O[C@H](CO)[C@H](O)[C@@H]3OC4(O[C@H]23)O[C@H]([C@@H](N)CO)[C@H](O)[C@H](O)[C@H]4O)[C@@H]1O` (stereo partly shown) [hygromycin B, Hygromycin B], the cell viability entry in data set [1] (20 μg/mL, 72 h) is on record as “less than 20%”. Besides, in data set [1] (50 μg/mL), the “cell viability expected at selection concentration” value is listed as “about 12%”.

As a reminder, the viability is the share of living cells, or the viability signal relative to a control. Higher therefore signals better survival. Turning to `COc1ccc(C[C@H](N)C(=O)N[C@H]2[C@@H](O)[C@H](n3cnc4c(N(C)C)ncnc43)O[C@@H]2CO)cc1` [puromycin, Puromycin dihydrochloride], the viability at 72 h, 2 μg/mL in data set [2] (cell viability) is less than 15%; in data set [2] (cell viability expected at selection concentration), approximately 12%.

The values are drawn from patent publication US20210403924A1, “Method for selecting cells based on CRISPR/Cas-mediated integration of a detectable tag to a target protein” (Hoffmann-La Roche Inc., priority 2018, published 2021).
